Assay results reported in patent US10202413B2, “Neuroactive enantiomeric 15-, 16- and 17-substituted steroids as modulators for GABA type-A receptors” (priority 2013, dated 2019).
Where two headings read alike, the source gives them in different places. Marks after values point to notes of the source that are not given here.

What was measured:
[1] = molecular target: picrotoxin binding site on GABAA receptors; assay: [35S]-TBPS displacement (inhibition of [35S]-TBPS binding); conditions: non-competitive displacement of [35S]-TBPS; ± standard error of the mean
Procedure: The IC50 values for the compounds of the examples as non-competitive displacers of [^35S]-TBPS from the picrotoxin binding site on GABAA receptors are reported in Table 1.
Results presented are from duplicate experiments performed in triplicate. Error limits are calculated as standard error of the mean. Methods used are known in the art (see, e.g., Jiang, et al., Neurosteroid analogues. 9. Conformationally constrained pregnanes: structure-activity studies of 13,24-cyclo-18,21-dinorcholane analogues of the GABA modulatory and anesthetic steroids (3α,5α)- and (3α,5β)-3-hydroxypregnan-20-one. J. Med. Chem. 2003, 46, 5334-5348).

Tadpole = Tadpole loss of righting (LRR) and loss of swimming (LSR) reflexes; type: in vivo; conditions: for tadpoles that lost LRR / tadpoles that lost LSR: concentration of 3 μM, number of 10 tadpoles; for EC50: ± SEM
Excerpt: Table 3 discloses the anesthetic effects of the compounds of the present disclosure. In particular, the anesthetic effect of the compounds of the present disclosure on Loss of Righting Reflex (LRR) and Loss of Swimming Reflex (LSR).
Methods used are known in the art (see, e.g., Jiang, et al., Neurosteroid analogues. 9. Conformationally constrained pregnanes: structure-activity studies of 13,24-cyclo-18,21-dinorcholane analogues of the GABA modulatory and anesthetic steroids (3α,5α)- and (3α,5β)-3-hydroxypregnan-20-one. J. Med. Chem. 2003, 46, 5334-5348). Error limits are calculated as standard error of the mean (N=10 or more animals at each of five or more different concentrations).

[2] = molecular target: T1, rat α1β2γ2L type GABAA receptors expressed in Xenopus laevis oocytes (Rattus norvegicus, UniProt P18508+P62813+P63138, INS375LLRMFSFK); assay: Oocyte electrophysiology: potentiation of chloride currents mediated by 2 μM GABA, and direct gating; type: cell-based; conditions: ± SEM (N≥4); for ratio of currents measured in the presence/absence of added compound, 0.1 μM: 0.1 μM compound; for ratio of currents measured in the presence/absence of added compound, 0.1 μM / ratio of currents measured in the presence/absence of added compound, 1.0 μM / ratio of currents measured in the presence/absence of added compound, 10 μM: 2 μM GABA; for ratio of currents measured in the presence/absence of added compound, 1.0 μM: 1.0 μM compound; for ratio of currents measured in the presence/absence of added compound, 10 μM: 10 μM compound; for (gating) 10 μM: ratio of compound only current/GABA current: direct current gated by 10 μM compound in the absence of GABA
T1 construct: expressed in transfected cells; host or cells: Xenopus laevis oocytes
Procedure: The compounds of the present disclosure were evaluated for the ability to potentiate chloride currents mediated by 2 μM GABA at rat α1β2γ2L type GABAA receptors expressed in Xenopus laevis oocytes and the results are shown in Table 2.
The GABA concentration used for the control response was 2 μM. Each compound was evaluated on at least four different oocytes at the concentrations indicated, and the results reported are the ratio of currents measured in the presence/absence of added compound. Gating represents direct current gated by 10 μM compound in the absence of GABA, and this current is reported as the ratio of compound only current/[…] current. Error limits are calculated as standard error of the mean (N≥4). Receptor expression and whole-cell and single-channel recordings were carried out as described previously (see Jiang, et al., Neurosteroid analogues. 9. Conformationally constrained pregnanes: structure-activity studies of 13,24-cyclo-18,21-dinorcholane analogues of the GABA modulatory and anesthetic steroids (3α,5α)- and (3α,5β)-3-hydroxypregnan-20-one. J. Med. Chem. 2003, 46, 5334-5348).

[3] = loss of righting reflex, read-out: Tadpole LRR EC50
[4] = loss of swimming reflex, read-out: Tadpole LSR EC50

T1 sequence (P62813 28-455, stated change not applied): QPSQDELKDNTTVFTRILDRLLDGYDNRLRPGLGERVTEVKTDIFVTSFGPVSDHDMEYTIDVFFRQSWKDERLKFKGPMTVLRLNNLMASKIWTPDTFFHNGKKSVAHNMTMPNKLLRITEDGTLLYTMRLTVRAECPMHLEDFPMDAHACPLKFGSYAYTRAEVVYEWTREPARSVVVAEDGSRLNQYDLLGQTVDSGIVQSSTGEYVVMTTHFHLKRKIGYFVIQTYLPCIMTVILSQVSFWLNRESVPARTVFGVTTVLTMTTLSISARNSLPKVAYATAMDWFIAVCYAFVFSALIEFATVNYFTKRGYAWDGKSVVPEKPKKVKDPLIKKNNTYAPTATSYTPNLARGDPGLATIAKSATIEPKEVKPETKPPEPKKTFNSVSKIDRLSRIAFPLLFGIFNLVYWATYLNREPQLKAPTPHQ
T1 sequence (P63138 26-474, stated change not applied): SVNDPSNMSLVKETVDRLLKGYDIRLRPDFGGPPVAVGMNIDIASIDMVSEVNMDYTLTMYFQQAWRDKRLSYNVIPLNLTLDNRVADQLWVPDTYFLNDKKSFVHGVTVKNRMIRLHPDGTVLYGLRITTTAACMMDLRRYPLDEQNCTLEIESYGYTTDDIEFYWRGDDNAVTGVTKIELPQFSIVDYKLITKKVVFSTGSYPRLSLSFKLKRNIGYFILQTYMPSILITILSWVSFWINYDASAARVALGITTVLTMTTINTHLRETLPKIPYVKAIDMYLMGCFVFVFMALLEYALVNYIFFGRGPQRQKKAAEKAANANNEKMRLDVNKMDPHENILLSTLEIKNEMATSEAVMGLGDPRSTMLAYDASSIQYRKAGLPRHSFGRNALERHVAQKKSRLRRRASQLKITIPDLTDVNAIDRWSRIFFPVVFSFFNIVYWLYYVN
T1 sequence (P18508 with tags, fused parts or gaps INS375LLRMFSFK): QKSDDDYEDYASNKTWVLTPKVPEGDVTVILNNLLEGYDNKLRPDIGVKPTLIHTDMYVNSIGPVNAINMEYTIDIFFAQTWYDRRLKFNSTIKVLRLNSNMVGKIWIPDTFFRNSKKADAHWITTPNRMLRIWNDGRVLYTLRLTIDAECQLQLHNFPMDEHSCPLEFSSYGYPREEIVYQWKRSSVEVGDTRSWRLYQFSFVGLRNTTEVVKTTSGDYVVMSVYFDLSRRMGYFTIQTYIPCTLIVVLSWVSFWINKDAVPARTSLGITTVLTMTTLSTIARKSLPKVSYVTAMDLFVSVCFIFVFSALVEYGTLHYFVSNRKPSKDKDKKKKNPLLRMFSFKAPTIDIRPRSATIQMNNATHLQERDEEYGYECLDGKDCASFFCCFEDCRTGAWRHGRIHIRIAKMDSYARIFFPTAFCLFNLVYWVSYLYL

| SMILES | IC50 [1] [nM] | melting point [°C] | tadpoles that lost LRR (Tadpole) | tadpoles that lost LSR (Tadpole) | ratio of currents measured in the presence/absence of added compound, 0.1 μM [2] | ratio of currents measured in the presence/absence of added compound, 1.0 μM [2] | ratio of currents measured in the presence/absence of added compound, 10 μM [2] | (gating) 10 μM: ratio of compound only current/GABA current [2] | EC50 (Tadpole; [3]) [nM] | EC50 (Tadpole; [4]) [nM] |
| --- | --- | --- | --- | --- | --- | --- | --- | --- | --- | --- |
| CO[C@@H]1C[C@@H]2[C@H]3CC[C@@H]4C[C@@H](O)CC[C@@]4(C)[C@@H]3CC[C@@]2(C)C1 [KK-134, (3β,5β,8α,9β,10α,13α,14β,16α)-16-Methoxyandrostan-3-ol] | 92 ± 9 | 169 to 171 | 10/10^a | 10/10^a | 1.16 ± 0.07 | 5.22 ± 1.09 | 8.27 ± 1.27 | 0.04 ± 0.05 |  |  |
| C[C@@]12CC[C@@H]3[C@H](CC(=O)[C@@H]4C[C@@H](O)CC[C@@]34C)[C@H]1CC(=O)C2 [MQ-124, (3β,5β,8α,9β,10α,13α,14β)-3-Hydroxyandrostane-6,16-dione] | 8950 ± 1860 | 205 to 207 |  |  | 0.68 ± 0.03 | 0.85 ± 0.03 | 1.57 ± 0.05 | −0.01 ± 0 | > 10000 | > 10000 |
| C[C@@]12CC[C@H]3[C@@H]4CC[C@H](O)C[C@@H]4CC[C@@H]3[C@H]1CC(=O)C2 [KK-102] | 146 ± 18 | 139 to 142 |  |  | 1.20 ± 0.02 | 4.23 ± 0.24 | 13.91 ± 1.38 | 0.04 ± 0.0 | 1210 ± 420 | 5480 ± 120 |
| C[C@@]12CC[C@@H]3[C@H](CC[C@H]4C[C@@H](O)CC[C@]43C)[C@H]1CC(=O)C2 [KK-97, (3β,5α,8α,9β,10α,13α,14β)-3-Hydroxyandrostan-16-one] | 112 ± 7 | 132 to 134 |  |  | 1.75 ± 0.24 | 6.15 ± 0.41 | 30.62 ± 2.14 | 0.16 ± 0.04 | 490 ± 110 | 1730 ± 30 |
| C[C@]1(O)CC[C@]2(C)[C@H](CC[C@H]3[C@H]2CC[C@@]2(C)C(=O)CC[C@H]32)C1 [KK-23, (3β,5β,8α,9β,10α,13α,14β)-3-Hydroxy-3-methylandrostan-17-one] | 185 ± 28 | 183 to 185 |  |  | 1.11 ± 0.15 | 3.31 ± 0.43 | 19.74 ± 5.64 | 0.09 ± 0.02 | 930 ± 530 | 2810 ± 10 |
| C[C@@]12CC[C@@H]3[C@H](CC[C@@H]4C[C@@H](O)CC[C@]43C)[C@H]1C[C@@H](C#N)C2 [KK-142, (3β,5β,8α,9β,10α,13α,14β,16α)-3-Hydroxyandrost-16-carbonitrile] | 29 ± 3 | 206 to 208 | 10/10^a | 10/10^a | 2.20 ± 0.20 | 8.83 ± 3.12 | 13.32 ± 4.54 | 0.03 ± 0.01 |  |  |
| CO[C@H]1CC[C@]2(C)CC[C@@H]3[C@H](CC[C@@H]4C[C@@H](O)CC[C@]43C)[C@@H]12 [MQ-117, (3β,5β,8α,9β,10α,13α,14β,15α)-15-Methxoyandrostan-3-ol] | 19 ± 8 | 137 to 139 |  |  | 3.43 ± 0.29 | 11.10 ± 1.16 | 26.20 ± 2.91 | 0.06 ± 0.02 | 79 ± 3 | 330 |
| C[C@@]12CC[C@@H]3[C@H](CC[C@@H]4C[C@@H](O)CC[C@]43C)[C@H]1CC(=CC#N)C2 [KK-138, 2-[(3β,5β,8α,9β,10α,13α,14β)-3-Hydroxyandrostan-16-ylidene]-acetonitrile] | 32 ± 3 | 162 to 172 |  |  | 1.63 ± 0.23 | 5.87 ± 1.65 | 10.16 ± 3.18 | 0.14 ± 0.06 | 140 | 870 |
| C[C@@]12CC[C@H](O)C[C@H]1CC[C@H]1[C@H]2CC[C@@]2(C)C=C(C#N)C[C@H]12 [KK-141, (3β,5β,8α,9β,10α,13α,14β)-3-Hydroxyandrost-16-ene-16-carbonitrile] | 154 ± 19 | 247 to 249 | 5/10^b | 0/10^c | 1.08 ± 0.11 | 1.35 ± 0.08 | 1.58 ± 0.13 | 0.08 ± 0.06 |  |  |
| C[C@@]12CC[C@H]3[C@@H]4CC[C@H](O)C[C@H]4CC[C@@H]3[C@H]1CCC2=O [KK-18, (3β,5β,8α,9β,10α,13α,14β)-3-Hydroxyestran-17-one] | 627 ± 100 |  |  |  | 1.07 ± 0.05 | 1.64 ± 0.11 | 9.34 ± 1.36 | 0.13 ± 0.12 | 3200 ± 2030 | > 10000 |
| C[C@@]12CC[C@@H]3[C@H](CC[C@H]4C[C@@H](O)CC[C@]43C)[C@H]1C[C@@H](C#N)C2 [KK-137, (3β,5α,8α,9β,10α,13α,14β,16α)-3-Hydroxyandrost-16-carbonitrile] | 22 ± 4 | 155 to 157 |  |  | 2.32 ± 0.17 | 7.08 ± 0.54 | 10.17 ± 0.68 | −0.04 ± 0.08 | 130 | 550 ± 10 |
| CO[C@@H]1C[C@@H]2[C@H]3C[C@H](OC)[C@@H]4C[C@@H](O)CC[C@@]4(C)[C@@H]3CC[C@@]2(C)C1 [MQ-125, (3β,5β,6α,8α,9β,10α,13α,14β,16α)-6,16-Dimethoxyandrostan3-ol] | 121 ± 10 | 127 to 129 | 10/10^a | 10/10^a | 1.19 ± 0.18 | 5.02 ± 0.40 | 14.08 ± 2.23 | 0.43 ± 0.41 |  |  |
| C[C@]1(O)CC[C@]2(C)[C@@H](CC[C@H]3[C@H]2CC[C@@]2(C)C(=O)CC[C@H]32)C1 [KK-26, (3β,5α,8α,9β,10α,13α,14β)-3-Hydroxy-3-methylandrostan-17-one] | 290 ± 33 |  |  |  | 1.38 ± 0.10 | 5.10 ± 0.64 | 23.74 ± 2.88 | 0.49 ± 0.18 | 1880 | 5480 ± 200 |
| O=C1C[C@@H]2CC[C@@H]3[C@H](CC[C@@H]4C[C@@H](O)CC[C@H]43)[C@H]2C1 |  | 168 to 169 |  |  |  |  |  |  |  |  |
